Assay results from article PMC5799093, “Proceedings of Réanimation 2018, the French Intensive Care Society International Congress” (Annals of Intensive Care, 2018).
Read-outs that look alike come from different tables or passages of the source.

Legend:
[1] = Delayed neuropsychiatric sequelae after carbon monoxide poisoning in outpatients
Candida isolates = experiment: Antifungal susceptibility of Candida isolates, Fungitest broth dilution; format: cell-based, Candida spp.
Procedure: Patients and methods: Our study is a retrospective review of 17 severely burned patients admitted to the burn unit of the Ben Arous Traumatology and Burns Center with one or more positive culture sites for Candida, during the 16-month period from May 2016 through August 2017. A total of 42 isolates were thus obtained. […] Since echinocandin and anidulafungine were recently introduced in Tunisia, the susceptibility to these antifungal classes was tested for only one patient from our cohort.

[2] = system: carbapenemase-producing Enterobacteriaceae; experiment: Antibiotic susceptibility of Enterobacteriaceae with decreased susceptibility to carbapenems; format: cell-based; conditions: for resistant rate: CA-SFM 2015
Pseudomonas aeruginosa = experiment: Disk diffusion susceptibility of P. aeruginosa isolated from burned patients (P-48); format: cell-based; conditions: 485 strains from burned patients 2012-2015, disk diffusion, FSM breakpoints
[3] = Acute amitriptylin and clomipramine poisonings in the ICU, clinical features and pharmacokinetics; conditions: median; AMI [0.4 + 1.4], dose 1.5 g; CLO [0.5 + 1.4], dose 3.0 g
[4] = system: cardiogenic shock patients; experiment: OPTIMA CC double-blind randomized trial, epinephrine vs norepinephrine in cardiogenic shock after myocardial infarction; format: in vivo
From the text: Patients and methods: Multicenter, double-blind, randomized trial in 8 french ICU. Cardiogenic shock patients due to myocardial infarction treated by PCI were randomized to receive epinephrine or norepinephrine to maintain MAP at 70 mmHg. Dobutamine was introduced at the physician discretion according to a combination of parameters—echocardiographic parameters, cardiac index, lactate clearance, SVO2 and Swan-Ganz derived parameters.

[5] = Population pharmacokinetics of cefotaxime and desacetylcefotaxime in critically ill children (P-168); format: in vivo, human (children)
Procedure: Patients and methods: All children aged less than 18 years, weighing more than 2.5 kg, and receiving intermittent CTX infusions were included. CTX and D-CTX were quantified by high performance liquid chromatography. Pharmacokinetics were described using the non-linear mixed effect modelling software MONOLIX. Monte Carlo simulations were used to optimize dosing regimen, in order to maintain serum concentration above the target concentration (defined at 2 mg L^−1) 100% of the time during the dosing interval.

anti-Xa activity = experiment: Pharmacokinetics of unfractionated heparin (anti-Xa activity) in children under ECMO (P-171); format: in vivo, human (children)
Procedure: Patients and methods: This is a single center retrospective study from March 2015 to September 2016. Were included children (< 18 years old age) who were under ECMO for refractory hemodynamic failure related to (i) myocarditis or (ii) septic shock. Anti-Xa activity time-courses were analyzed using a non linear mixed effects approach with Monolix version 2016R.

[6] = Beta-lactam plasma concentrations in children with severe sepsis or septic shock (HPLC); conditions: current standard dosing
[7] = Cyproheptadine poisoning, retrospective series (P-180); format: in vivo, human
Procedure: Patients and methods: Retrospective study was performed between January 2008 and APRIL 2017. Epidemiological data clinical data and outcome were reviewed.

[8] = Residual serum concentrations of piperacillin and amoxicillin and neurological disorders (HPLC MS); format: in vivo, critically ill patients
Procedure: Patients and methods: This study was carried out retrospectively during the period 01.01.2015 to 08.02.2017, in patients hospitalized in the medical ICU-CHU Rouen with PTM.

[9] = system: patients with severe alcohol withdrawal syndrome; experiment: Continuous-infusion midazolam for severe alcohol withdrawal syndrome, complications; format: in vivo
From the text: Patients and methods: We retrospectively reviewed the medical records of all patients hospitalized for alcohol withdrawal syndrome between 2006 and 2016. Only those who received continous-infusion of BZD, associated with close clinical monitoring and the evaluation of RASS and Cushman scores, without systematic recourse to mechanical ventilation, were included.

Acinetobacter baumannii = format: cell-based
Procedure: Patients and methods: From January 2012 to December 2016, a total of 2,182 non repetitive strains were isolated from blood cultures. Incubation of blood culture vials and the detection of bacterial growth were performed by the BACTEC system. All Isolated organisms were identified on the basis of standard microbiological techniques. Antibiotic susceptibility testing was carried out by the agar disk diffusion method, and susceptibility results were interpreted using clinical breakpoints according to CA-SFM 2013 and 2015 guidelines. Data were analyzed using the SIR-system. Minimum inhibitory concentrations of colistin, imipenem and vancomycin were determined using the Etest® method (bioMérieux).

[10] = system: Extended spectrum betalactamase producing Enterobacteriaceae; experiment: Antibiotic resistance of ESBL producing Enterobacteriaceae (P-147); format: cell-based; conditions: isolates 2015 and 2016
[11] = Acute olanzapine poisoning in ICU (P-182); format: in vivo, human
Procedure: Patients and methods: Retrospective analysis of all cases of olanzapine intoxication admitted in 12-bed teaching ICU between January 2013 and Decembre 2017. Inclusion criteria were patient age ≥ 14 year, acute olanzapine intoxication, the intoxication severity was assessed by the Poisoning Severity Score (PSS) of the European Association of Poison Centres and Clinical Toxicologists. The evaluation of electrocardiograms was performed in the first day of hospitalization. The durations of QRS and QTc was measured and arrhythmias and conduction disorders was identified.

[12] = median (range), 49 children, one compartment model

[C-]#[O+] [CO, Carbon monoxide]
mean serum HbCO level on admission ([1]; 83 patients): 15 ± 8%
persistent headaches ([1]; among identified disorders): 39%
anxiety-depressive disorders ([1]; in vivo): 39%
cognitive disorders ([1]; in vivo): 22%
irritability ([1]; in vivo): 22%
mean onset time of symptoms ([1]; in vivo): 5 ± 3 months
prevalence of patients with delayed neuropsychiatric sequelae ([1]; telephone contact at 16 ± 9 months): 26%

Clc1ccc(COC(Cn2ccnc2)c2ccc(Cl)cc2Cl)c(Cl)c1 (stereo not shown) [miconazole]
intermediate isolates (Candida isolates): 33.3%

CO/N=C(\C(=O)N[C@@H]1C(=O)N2C(C(=O)O)=C(COC(C)=O)CS[C@H]12)c1csc(N)n1 [cefotaxime]
resistant rate [2]: 97%

OC(Cn1cncn1)(Cn1cncn1)c1ccc(F)cc1F [fluconazole]
intermediate isolates (Candida isolates): 11.1%
resistant isolates (Candida isolates): 11.1%
susceptible isolates (Candida isolates): 77.8%

CC1(C)S[C@@H]2[C@H](NC(=O)[C@H](C(=O)O)c3ccsc3)C(=O)N2[C@H]1C(=O)O [ticarcillin]
strains resistant (Pseudomonas aeruginosa): 69%

CN(C)CCCN1c2ccccc2CCc2ccc(Cl)cc21 [CLO, clomipramine]
plasma concentration [3]: 700 ng/mL

CNC[C@H](O)c1ccc(O)c(O)c1 [epinephrine]
arterial pH and lactate ([4]; H2 to H24): lactic acidosis from H2 to H24
cardiac index and cardiac power index ([4]; epinephrine vs norepinephrine group): increased significantly more
ECMO use ([4]; in vivo): 11%
cardiac double product (surrogate of myocardial oxygen consumption) ([4]; in vivo): increased
heart rate evolution ([4]; in vivo): increased significantly
incidence of arrhythmia ([4]; in vivo): 41%
mortality ([4]; in vivo): 52%
incidence of refractory shock ([4]; titrated to MAP 70 mmHg, epinephrine n = 27, norepinephrine n = 30): 37%

C[C@@H]1[C@H](O)[C@@H](C)/C=C/C=C/C=C/C=C/C=C/C=C/C=C/[C@H](O[C@@H]2O[C@H](C)[C@@H](O)[C@H](N)[C@@H]2O)C[C@@H]2O[C@](O)(C[C@@H](O)C[C@@H](O)[C@H](O)CC[C@@H](O)C[C@@H](O)CC(=O)O[C@H]1C)C[C@H](O)[C@H]2C(=O)O [amphotericin B]
resistant strains (Candida isolates): Only one strain was resistant

CO/N=C(\C(=O)N[C@@H]1C(=O)N2C(C(=O)O)=C(CO)CS[C@H]12)c1csc(N)n1 [D-CTX, desacetylcefotaxime]
D-CTX clearance [5, 12]: 3.2 (0.6–16.3) L h^−1

unfractionated heparin
typical clearance (CLTYP) (anti-Xa activity; 12 children under ECMO, one-compartment, scaled to 70 kg): 2.42 L/h
typical volume of distribution (VTYP) (anti-Xa activity; 12 children under ECMO, scaled to 70 kg): 5.1 L
samples with anti-Xa activity > 0.6 IU mL (anti-Xa activity; 37 of 214 samples): 17%
samples with anti-Xa activity < 0.4 IU mL (anti-Xa activity; 81 of 214 samples): 38%
samples with anti-Xa activity in the target (0.4 to 0.6 IU mL) (anti-Xa activity; 96 of 214 samples, 12 children): 45%
bleeding (anti-Xa activity; of 12): 2 children
thrombosis (anti-Xa activity; of 12): 4 children

CC(=O)N1CCN(c2ccc(OCC3COC(Cn4ccnc4)(c4ccc(Cl)cc4Cl)O3)cc2)CC1 (stereo not shown) [ketoconazole]
intermediate isolates (Candida isolates): 40.7%

C[C@H]1[C@H](NC(=O)/C(=N\OC(C)(C)C(=O)O)c2csc(N)n2)C(=O)N1S(=O)(=O)O [aztreonam]
resistant rate [2]: 67%

C[C@@H](O)[C@H]1C(=O)N2C(C(=O)O)=C(S[C@@H]3CN[C@H](C(=O)N(C)C)C3)[C@H](C)[C@H]12 [meropenem]
patients with insufficient plasma concentration [6]: 50%

CN1CCC(=C2c3ccccc3C=Cc3ccccc32)CC1 [cyproheptadine]
delirium ([7]; 56 patients): 20%
outcome ([7]; 56 patients): favorable in all cases
patients with peripheral anti-cholinergic symptoms ([7]; 56 patients): Forty two
median delay of symptoms onset ([7]; 56 patients, mean ingested dose 94 mg, range [1–14]): 3 h
correlation between coma and assumed ingested dose ([7]; in vivo): no correlation
mean duration of mechanical ventilation ([7]; six ventilated patients, ± 4): 17 h

CO/N=C(\C(=O)N[C@@H]1C(=O)N2C(C(=O)O)=C(COC(C)=O)CS[C@H]12)c1csc(N)n1 [CTX, cefotaxime]
target attainment of calculated residual concentrations ([5]; intermittent infusions, target 2 mg L^−1): no patient succeeds to attain the target
volume of distribution [5, 12]: 3.3 (0.85–20) L
CTX clearance ([5]; median (range), 49 children, one compartment model, MONOLIX, HPLC): 0.97 (0.3–7.1) L h^−1

CCC(C)n1ncn(-c2ccc(N3CCN(c4ccc(OCC5COC(Cn6cncn6)(c6ccc(Cl)cc6Cl)O5)cc4)CC3)cc2)c1=O (stereo not shown) [itraconazole]
intermediate isolates (Candida isolates): 81.5%

CC1(C)S[C@@H]2[C@H](NC(=O)[C@H](N)c3ccc(O)cc3)C(=O)N2[C@H]1C(=O)O [amoxicillin]
residual concentration associated with occurrence of neurological disorders ([8]; 80% specificity and sensitivity): greater than 40 mg L^−1
residual serum concentration, patients with neurological disorders or wakefulness delays ([8]; HPLC MS): 157 ± 72 mg L^−1
residual serum concentration, patients without neurological disorders ([8]; HPLC MS): 35.8 ± 13.0 mg L^−1
patients with insufficient plasma concentration [6]: 86%

Cc1nnc(SCC2=C(C(=O)O)N3C(=O)[C@@H](NC(=O)Cn4cnnn4)[C@H]3SC2)s1 [cefazoline, cefazolin]
patients with insufficient plasma concentration [6]: 25%

Cc1ncc2n1-c1ccc(Cl)cc1C(c1ccccc1F)=NC2 [midazolam]
OR of intubation and or pneumonia for maximum perfusion velocity > 8 mg h ([9]; IC 95% (2.11–168.15)): 18.83
patients developing pneumonia and or requiring intubation ([9]; continuous infusion, median maximum 8 mg h, n = 104): 12%
cardiac arrest and death ([9]; n = 104): No cardiac arrest and death was observed
patients with seizures ([9]; n = 104): 8%

C[C@@H]1O[C@@H]1P(=O)(O)O [fosfomycin]
susceptibility ([2]; colistin excepting with Proteus): 65%

CO[C@H]1/C=C/O[C@@]2(C)Oc3c(C)c(O)c4c(O)c(c(/C=N/N5CCN(C)CC5)c(O)c4c3C2=O)NC(=O)/C(C)=C\C=C\[C@H](C)[C@H](O)[C@@H](C)[C@@H](O)[C@@H](C)[C@H](OC(C)=O)[C@@H]1C [rifampicin]
resistance rate (Acinetobacter baumannii; by 2016): 67%
resistance rate (Acinetobacter baumannii; in 2014): 15%

CNC(C)C1CCC(N)C(OC2C(N)CC(N)C(OC3OCC(C)(O)C(NC)C3O)C2O)O1 (stereo not shown) [Gentamicin]
rate of resistance [10]: 50%

Cc1cc2c(s1)Nc1ccccc1N=C2N1CCN(C)CC1 [olanzapine, Olanzapine]
mean duration of prolonged QTc ([11]; 5 cases): 460 ± 28 ms
Poisoning Severity Score moderate, monointoxication ([11]; 8 patients, 3 cases): 37.5%
Poisoning Severity Score severe, monointoxication ([11]; 8 patients, 4 cases): 50%
Poisoning Severity Score fatal ([11]; 24 patients): 1 case
Poisoning Severity Score moderate ([11]; 24 patients, 9 cases): 37.5%
Poisoning Severity Score severe ([11]; 24 patients, 14 cases): 58%
agitation ([11]; n = 8 of 24): 33%
miosis ([11]; n = 15 of 24): 62%
tachycardia ([11]; n = 15 of 24): 62%
Coma Glosgow Scale < 12 ([11]; of 24): 14 cases
mechanical ventilation required ([11]; of 24): 58%
prolonged QTc ([11]; of 24): 5 cases
QRS enlargement on the ECG (human, in vivo): 10%
QT widening (human, in vivo): 23%
abolished tendon reflexes (human, in vivo): 31%
increased tendon reflexes (human, in vivo): 28%
mydriasis (human, in vivo): 10%
myorelaxation (human, in vivo): 68%
myosis (human, in vivo): 39%
seizures (human, in vivo): No seizure was observed
plasma concentration on admission (median [0.185 + 0.820], ingested dose 200 mg [110 + 333], n = 71): 310 ng/mL
Glasgow coma score (median [percentiles 25 + 75], multidrug ingestion): 4 [3 + 8]
elimination in overdose (non-compartmental analysis): prolonged olanzapine elimination at elevated concentrations
died in the ICU (patients with pre-hospital cardiac arrest): 4%

CCn1cc(C(=O)O)c(=O)c2cc(F)c(N3CCNCC3)cc21 [Norfloxacin]
rate of resistance [10]: 89.13%
